Measurements taken from patent US8969295B2, “Identifying and modulating molecular pathways that mediate nervous system plasticity” (Massachusetts Institute of Technology, priority 2006, dated 2015).
Entries after “also recorded” stand apart in the source; their conditions may differ.

What was measured:
[1] = tested on: cGMP; conditions: Leamey et al., 2001; cited from earlier work
[2] = tested on: PKC; conditions: Nishiyama et al., 2003; cited from earlier work
[3] = tested on: binocular portion of V1; assay: Optical imaging of intrinsic signals in V1: ocular dominance after monocular deprivation (MD) with IGF1; format: in vivo, mouse
Procedure: For monocular deprivation, animals were anesthetized with avertin (0.016 ml/g) and the eyelids of one eye were sutured (at P20-22 for 7 days for imaging experiments). Before imaging, the suture was removed and the deprived eye re-opened. Only animals in which the deprivation sutures were intact and the condition of the deprived eye appeared healthy were used for the imaging session. For DR animals (aged P27-30), the procedure was the same described above, with the exception that the animals were anesthetized in darkness and not exposed to light until deeply anaesthetized; in these mice only the binocular response was evaluated and compared to that in control animals.
Mice (129/SvEv and C57B1/6) aged P26-30 were anesthetized with urethane (1.5 g/Kg) and chlorprothixene (0.2 mg), as described^84. Skin was excised and the skull exposed over V1. A custom-made attachment was used to fix the head and minimize movements. The cortex was covered with agarose solution (1.5%) and a glass cover slip. During the imaging session the animal's body temperature was kept constant with a heating blanket and the EKG monitored constantly. […]
A temporal high pass filter (135 frames) was employed to remove slow noise components, after which the temporal Fast Fourier Transform (FFT) component at the stimulus frequency ([…]) was calculated pixel by pixel from the whole set of images. […]

[4] = tested on: IGF1 receptor (IGF1R); assay: Immunostaining in V1 after MD with concurrent IGF1; format: in vivo, mouse; conditions: short-term (4 days) MD + daily IP IGF1
Procedure: (§1) In additional experiments in which the effects of short-term (4 days from P23-27) MD were investigated, as well the effects of IGF1 infusion concurrent with MD, a total of four experimental groups were analyzed: a new group of control animals (3 samples), the ipsilateral and the contralateral cortex of mice monocularly deprived for four days (3 samples for the ipsilateral and 3 samples for the contralateral cortex), the contralateral cortex of mice that were monocularly deprived for four days and were injected IP daily with IGF1 solution (3 samples). Tissue was removed and the RNA extracted as described above, and labeled RNA was hybridized to the Affymetrix mouse genome 430.2 chip, which contains oligonucleotides that correspond to a total of 42,000 probes targeting genes and ESTs.
(§2) Mice were anesthetized and transcardially perfused with a solution of 4% paraformaldehyde. The appropriate brain hemispheres were removed and equilibrated in 30% sucrose in PBS. Coronal sections containing visual cortex were cut using a freezing microtome. Immunohistochemistry for GluR1 (1:500, Upstate), IGFBP5 (1:500, USBiological), CaMK2alpha (1:500, Sigma), PhosphoCREB (1:500, Cell Signaling), activated Stat1 (1:500, Abcam), parvalbumin (1:1000, Chemicon), calretinin (1:500, Chemicon), somatostatin (1:300, Chemicon), neuropeptideY (1:400, Chemicon), synapsin 1 (1:500, Chemicon), IGF1 (1:250, Chemicon), GAD 67 (1:400, Chemicon), IGF1R (1:500, Upstate), PI3K—catalytic subunit 110 (1:400, Upstate), phosphorylated-Akt (1:250, Cell Signaling), was carried out as described elsewhere^82,83. For each staining, analysis was repeated in parallel for control and deprived animals. Experiments were carried out at least on two animals for each group and repeated twice. The intensity of staining in sections from control and deprived animals was evaluated with ImageJ software (rsb.info.nih.gov/ij/). Counts of parvalbumin, calretinin, somatostatin and NPY-positive cells were performed as described elsewhere^29.
(§3) For IGF1 treatment, a solution containing GPE, the functional peptide of IGF1, was prepared as described^56: 300 μg of GPE was injected intra-peritoneally daily for the entire period of deprivation. This peptide is referred to as “IGF1” in the Results below.

[5] = tested on: IGFBP5; assay: Immunostaining in V1 after MD with concurrent IGF1; format: in vivo, mouse; conditions: short-term (4 days) MD + daily IP IGF1, cortex contralateral to deprived eye
Procedure: as §1, §2, §3

[6] = tested on: Phosphatidylinositol 3-Kinase (PI3K); assay: Immunostaining in V1 after MD with concurrent IGF1; format: in vivo, mouse; conditions: short-term (4 days) MD + daily IP IGF1; P<0.05
Procedure: as §1, §2, §3

[7] = tested on: phosphorylated-Akt; assay: Immunostaining in V1 after MD with concurrent IGF1; format: in vivo, mouse; conditions: short-term (4 days) MD + daily IP IGF1
Procedure: as §1, §2, §3

[8] = tested on: synapsin 1; assay: Immunostaining in V1 after MD with concurrent IGF1; format: in vivo, mouse; conditions: short-term (4 days) MD + daily IP IGF1; P<0.05
Procedure: as §1, §2, §3

[9] = tested on: IGFBP5; assay: Microarray analysis of MD+IGF1 animals versus MD animals; format: in vivo, mouse; conditions: 4 days MD + daily IP IGF1, contralateral cortex; P<0.01
Procedure: as §1
(§4) A method for the Significance Analysis of Microarrays to assess changes in gene expression was used^31, and the method was implemented in MATLAB (The Mathworks, Natick, Mass.). The method allows the comparison of the expression level of each gene under two conditions (e.g., MD vs. control; or DR vs. control). […] Correlations between replicates were calculated as correlation coefficients (c.c.) for all conditions: control (c.c.=0.99±0.002), MD 16 days (c.c.=0.9±0.05), MD 4 days contralateral (c.c.=0.99±0.001), MD 4 days ipsilateral (0.99±0.005), MD 4 days contralateral plus IGF1 (c.c.=0.99±0.004). […]

[10] = tested on: PI3K; assay: as above; format: in vivo, mouse; conditions: 4 days MD + daily IP IGF1, contralateral cortex; P<0.01
Procedure: as §1, §4

[11] = tested on: visual cortex gene expression; assay: Microarray analysis of MD+IGF1 animals versus MD animals, all genes; format: in vivo, mouse; conditions: 4 days MD + daily IP IGF1, microarray
Procedure: as §1, §4

[12] = tested on: ischemia in the CNS; conditions: intra-peritoneal administration; cited from earlier work
[13] = in vivo; cited from earlier work

Molecule: O=c1onc2cnc3ccccc3n12 [ODQ]
- effective dose for influencing axon growth [1]: about 10 μM

Molecule: CN(C)CCCn1cc(C2=C(c3c[nH]c4ccccc34)C(=O)NC2=O)c2ccccc21 [GF109203X]
- Effective doses in slices [2]: 10 to 100 µM

Molecule: IGF1: GPE, the functional peptide of IGF1 (tripeptide), referred to as IGF1 in the Results of Example 4 (Insulin-like growth factor I; UniProt P05019 49-51, looked up, fragment)
- shift of mean ocular dominance index across animals relative to control ([3]; 7 days MD + IGF1 i.p., n=3, P>0.2 vs control): prevented the shift
- ocular dominance shift towards the open eye (ocular dominance distribution of pixels within the binocular zone) ([3]; 7 days MD during critical period, 300 μg GPE intra-peritoneally daily for the period of deprivation): prevented the ocular dominance shift towards the open eye; also recorded: prevents the ocular dominance shift
- Expression of the IGF1 receptor (IGF1R), immunostaining in V1 [4]: partially restored
- IGFBP5 immunostaining in V1 [5]: no change from normal levels
- PI3K expression, immunostaining in V1 [6]: fully restored
- Expression of phosphorylated-Akt, immunostaining in V1 [7]: restored
- level of synapsin expression, immunostaining for synapsin 1 in V1 [8]: significant increase
- IGFBP5 microarray expression compared to MD alone [9]: significantly downregulated
- PI3K microarray expression compared to MD alone [10]: upregulated
- genes significantly altered in expression in MD+IGF1 animals compared to MD animals [11]: only a small fraction of genes was significantly altered
- effects of ischemia in the CNS [12]: prevents the effects of ischemia in the CNS
- ability to cross the blood brain barrier [13]: able to cross the blood brain barrier
